Measured values published in publication PMC9196127, “Novel STAT3 Inhibitors Targeting STAT3 Dimerization by Binding to the STAT3 SH2 Domain” (Frontiers in Pharmacology, 2022).

Biological target: STAT3 (Homo sapiens, UniProt P40763)
Assay: Fluorescence polarization (FP) competition assay with 5-FLU-GpYLPQTV-NH2
Format: binding
Set-up: purchased Abcam ab43618
Settings: FP assay
Method: The FP assay was conducted as described in [Zhao et al. (2010]). The fluorochrome-labeled phosphopeptide, 5-FLU-G (pY)LPQTV-NH2, was synthesized by ProImmune (London, United Kingdom) with over 95% purity as a probe. The recombinant human STAT3 protein was purchased from Abcam (ab43618). To obtain an inhibitory effect, drugs (0–1,000 μM) and 150 nM human STAT3 were incubated at 37°C in an assay buffer (50 mm NaCl, 10 mm HEPES, 1 mm EDTA, and 0.01% Triton X-100) for 1 h prior to co-incubation with 10 nM of the fluorochrome-labeled peptide at RT for 30 min. The plate was sealed under nitrogen and left at RT for 72 h. The fluorescence polarization was then analyzed by the BioTek Synergy™ Neo2 Multi-Mode Microplate Reader (BioTek Instruments, Winooski, VT, United States). Binding curves were fit to a log-logistic function using the R package drc. Ki was determined from the resulting IC50 using the Cheng–Prusoff equation and the Kd for fluorochrome-labeled peptide binding to STAT3, Ki = IC50/(([L])/Kd) +1. […]
FIGURE 4 Fluorescence polarization (FP) assays identified 323s as direct STAT3 SH2 domain binders. (A) Fluorescence polarization (FP) analysis of the binding of 10 nM GpYLTQTV-NH2and 150 nM human STAT3 protein with increasing concentration of drugs. […]

STAT3, sequence (P40763 whole entry): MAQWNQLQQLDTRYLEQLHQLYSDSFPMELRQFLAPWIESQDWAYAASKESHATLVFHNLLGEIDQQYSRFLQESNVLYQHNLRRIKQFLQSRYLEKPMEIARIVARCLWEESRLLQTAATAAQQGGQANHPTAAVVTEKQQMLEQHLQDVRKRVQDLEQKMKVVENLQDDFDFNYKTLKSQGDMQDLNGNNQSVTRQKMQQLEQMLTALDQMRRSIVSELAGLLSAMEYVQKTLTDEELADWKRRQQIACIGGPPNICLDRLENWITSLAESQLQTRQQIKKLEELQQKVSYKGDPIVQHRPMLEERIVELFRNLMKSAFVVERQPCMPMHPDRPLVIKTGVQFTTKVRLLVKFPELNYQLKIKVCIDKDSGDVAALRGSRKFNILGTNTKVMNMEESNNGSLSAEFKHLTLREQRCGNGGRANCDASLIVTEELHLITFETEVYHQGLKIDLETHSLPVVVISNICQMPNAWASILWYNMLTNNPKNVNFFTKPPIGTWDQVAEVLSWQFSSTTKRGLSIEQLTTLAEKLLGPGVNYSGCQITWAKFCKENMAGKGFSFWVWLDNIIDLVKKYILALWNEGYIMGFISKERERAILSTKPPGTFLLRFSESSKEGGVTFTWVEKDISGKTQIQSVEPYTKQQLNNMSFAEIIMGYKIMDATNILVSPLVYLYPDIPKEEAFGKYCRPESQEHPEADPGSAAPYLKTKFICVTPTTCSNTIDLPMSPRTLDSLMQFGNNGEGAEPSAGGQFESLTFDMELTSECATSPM

SMILES | potency to disrupt STAT3/GpYLPQTV relative to S3I-201
C[C@@H]1CCC(c2cc3c4c(cncc4c2)[C@@H](C)C3)=C1C=O [323–2, (15S,2R)-delavatine A] | around five-fold more potently than S3I-201
C[C@@H]1CCC(c2cc3c4c(cncc4c2)[C@H](C)C3)=C1C=O [323–1, (15R,2R)-delavatine A] | around five-fold more potently than S3I-201
